Reference: article PMC3050433, “The effects of maribavir on the autophosphorylation of ganciclovir resistant mutants of the cytomegalovirus UL97 protein” (Herpesviridae, 2010)
Numbering of substitutions follows the chain as printed. Entries after “also recorded” stand apart in the source; their conditions may differ.

How the values were obtained:
Settings in all cases: wild type normalised to 100%
[1] = target: T1, UL97 D456A (Human cytomegalovirus, UniProt Q68101, D456A); assay: GCV phosphorylation in baculovirus-infected Sf21 insect cells, D456A; assay type: cell-based
T1 construct: PCR reaction to generate the full length UL97; honey bee melittin secretion signal (N); made in house; host or cells: Sf21 insect cells, recombinant baculovirus (pMelBac C)
T1 sequence (Q68101 1-707 D456A): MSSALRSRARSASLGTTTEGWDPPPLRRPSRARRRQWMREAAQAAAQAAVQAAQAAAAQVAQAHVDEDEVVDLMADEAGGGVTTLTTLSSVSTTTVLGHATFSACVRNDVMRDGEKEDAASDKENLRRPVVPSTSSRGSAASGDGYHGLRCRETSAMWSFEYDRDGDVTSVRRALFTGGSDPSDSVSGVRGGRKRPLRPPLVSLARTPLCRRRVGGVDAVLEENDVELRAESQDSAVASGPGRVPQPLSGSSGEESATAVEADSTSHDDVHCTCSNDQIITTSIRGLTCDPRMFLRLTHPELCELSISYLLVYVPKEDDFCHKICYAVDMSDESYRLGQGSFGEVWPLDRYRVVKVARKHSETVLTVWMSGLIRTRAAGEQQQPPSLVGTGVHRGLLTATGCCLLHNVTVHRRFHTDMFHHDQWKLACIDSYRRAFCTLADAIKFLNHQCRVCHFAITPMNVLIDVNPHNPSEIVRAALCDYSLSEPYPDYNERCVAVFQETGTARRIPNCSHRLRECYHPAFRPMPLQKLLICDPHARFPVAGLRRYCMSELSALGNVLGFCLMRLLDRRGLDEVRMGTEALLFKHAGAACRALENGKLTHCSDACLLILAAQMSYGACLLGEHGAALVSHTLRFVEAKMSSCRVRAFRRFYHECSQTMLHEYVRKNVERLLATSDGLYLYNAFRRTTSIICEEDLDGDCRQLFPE
Experimental: (§1) Sf21 insect cells were infected with wild type or mutant UL97 recombinant baculoviruses at an m.o.i. of 10. After 48 h incubation at 28°C, the culture medium was replaced with fresh medium containing 1.0 mM GCV and [^3H] GCV (0.55 Mbq, Moravek Radiochemicals, California, USA) After a further 24 hours of incubation, nucleotides were harvested by acid hydrolysis (0.5 M perchloric acid), neutralisation to pH 7.5 (2.5 M KOH, 1.5 M KH2PO4) and centrifugation (13000 × g). 50 μl aliquots of supernatant were spotted onto 20 mm diameter DEAE-coated DE81 chromatographic paper discs and the monophosphorylated GCV allowed to bind. The discs were washed twice in 3 ml 10 mM ammonium acetate for 10 minutes and twice in 95% ethanol for 10 minutes. After drying 5 ml of sigmafluor was added (Sigma Chemicals, Dorset, UK) and the radioactivity determined by liquid scintillation counting.

[2] = target: T2, UL97 K355Q (Human cytomegalovirus, UniProt Q68101, K355Q); assay: GCV phosphorylation in baculovirus-infected Sf21 insect cells, K355Q; assay type: cell-based
T2 construct: PCR reaction to generate the full length UL97; honey bee melittin secretion signal (N); expressed in transfected cells; host or cells: Sf21 insect cells infected with recombinant baculovirus
T2 sequence (Q68101 1-707 K355Q): T1 sequence (Q68101 1-707 D456A) with K355Q, A456D
Experimental: as §1

[3] = tested on: UL97 N461G; assay: GCV phosphorylation in baculovirus-infected Sf21 insect cells, N461G; assay type: cell-based, human cytomegalovirus
Experimental: as §1

For `Nc1nc(O)c2ncn(COC(CO)CO)c2n1` [GCV, ganciclovir], the “GCV phosphorylation relative to wild type UL97” value [1] was “no effect on GCV phosphorylation”, the “GCV phosphorylation relative to wild type UL97” value [2] was “unable to phosphorylate GCV; also recorded: complete loss of GCV kinase activity” and the “GCV phosphorylation relative to wild type UL97” value [3] was “complete loss of GCV kinase activity”.
